The assay deals with Methicillin-susceptible S. aureus UC®9213. The experiment in a line: Minimum inhibitory concentration (MIC) by agar dilution. As to conditions: Staphylococcus aureus, UC9213, lowest concentration that inhibits visible growth, read-out: Antibacterial Activity, Minimum Inhibitory Concentration, S.A. The assay is classed as cell-based. An excerpt:
The isoxazolinone antibacterial agents of this invention have useful activity against a variety of organisms. The in vitro activity of compounds of this invention can be assessed by standard testing procedures such as the determination of minimum inhibitory concentration (MIC) by agar dilution as described in “Approved Standard. Methods for Dilution Anti microbial Susceptibility Tests for Bacteria That Grow Aerobically”, 3rd. ed., published 1993 by the National Committee for Clinical Laboratory Standards, Villanova, Pa., USA. S.A is Methicillin-susceptible S. aureus UC®9213. Minimum inhibitory concentration refers to lowest concentration of drug (μg/mL) that inhibits visible growth of the organism.
(In agar dilution the substance is mixed into plates at graded concentrations.)

≈ marks a conversion by molar mass, not a printed value.

With `CN[C@H](CC(C)C)C(=O)N[C@H]1C(=O)N[C@@H](CC(N)=O)C(=O)N[C@H]2C(=O)N[C@H]3C(=O)N[C@H](C(=O)N[C@H](C(=O)O)c4cc(O)cc(O)c4-c4cc3ccc4O)[C@H](O)c3ccc(c(Cl)c3)Oc3cc2cc(c3O[C@@H]2O[C@H](CO)[C@@H](O)[C@H](O)[C@H]2O[C@H]2C[C@](C)(N)[C@H](O)[C@H](C)O2)Oc2ccc(cc2Cl)[C@H]1O` [vancomycin], the MIC amounted to 1 µg/mL (≈ 0.69 µM).
Then `CC(=O)NCn1cc(-c2ccc3c(c2)CC(C)N3C=O)c(=O)o1` (centres unmarked) [Example 1, N-{[4-(N-formyl-2-methylindolinyl)-5-oxo-isoxazol-2-yl]methyl}acetamide], with 2 µg/mL (≈ 6.34 µM).

(Values after patent US6825225B2, “Bicyclic isoxazolinones as antibacterial agents” (Pharmacia & Upjohn Company, priority 2000, dated 2004).)
